The values below come from patent publication US20220280661A1, “GLUCOCORTICOID RECEPTOR RADIOLIGANDS AND METHODS FOR THEIR PREPARATION AND USE” (The Regents of the University of California, priority 2019, published 2022).

The target in one data set is T1, ER (Homo sapiens, UniProt P03372).
T1 construct: MCF7 (PR, ER); endogenous in cells; host or cells: MCF7
T1 sequence (P03372 1-595): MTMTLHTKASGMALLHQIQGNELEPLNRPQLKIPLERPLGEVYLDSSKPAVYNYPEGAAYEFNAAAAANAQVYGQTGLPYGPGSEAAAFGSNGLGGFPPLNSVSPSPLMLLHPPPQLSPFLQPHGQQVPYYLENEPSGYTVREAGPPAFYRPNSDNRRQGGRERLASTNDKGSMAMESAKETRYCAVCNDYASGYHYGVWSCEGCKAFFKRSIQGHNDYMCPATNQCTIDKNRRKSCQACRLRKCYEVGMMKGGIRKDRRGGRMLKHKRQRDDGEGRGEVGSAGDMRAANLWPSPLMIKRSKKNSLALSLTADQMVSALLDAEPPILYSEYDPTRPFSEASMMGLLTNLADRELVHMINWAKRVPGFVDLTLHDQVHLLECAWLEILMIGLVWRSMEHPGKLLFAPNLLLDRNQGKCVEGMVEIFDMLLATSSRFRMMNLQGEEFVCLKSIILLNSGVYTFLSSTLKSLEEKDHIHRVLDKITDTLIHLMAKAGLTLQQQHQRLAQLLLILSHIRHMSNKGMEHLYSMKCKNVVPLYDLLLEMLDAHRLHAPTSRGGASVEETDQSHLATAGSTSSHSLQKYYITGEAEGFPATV
In words: 3H-ligand displacement assay on cells, ER (MCF7). Format: binding. On the procedure: The affinity of YJH08 for GR and the other type 1 subfamily 3 nuclear hormone receptors was evaluated using ^3H-ligand displacement assays on cells. The Kd for subfamily 3 class C nuclear hormone receptors was determined on cells by displacing ^3H-steroidal agonists for the respective receptor. […] The Kd was determined using the following cell lines: DU145 (GR), LNCaP-AR (AR), MCF7 (PR, ER), and HEK293 transiently overexpressing full length human MR.
The cold ligands and ^3H-steroids were co-incubated on cells in PBS at room temperature for one hour. Following incubation, the cells were washed twice with ice cold PBS and the unbound activity was retained for analysis. The cells were lysed with 1 mL of 1M NaOH and collected. Bound and unbound fractions were counted in a liquid scintillation counter and expressed as a percentage of the total activity added per equal relative number of cells. […] These experiments were performed at three concentrations of experimental ligand (1 pM, 100 nM and 10 μM), and a linear extrapolation was used to subtract the non-specific component of binding from each treatment condition. The specific binding component was plotted against the log of the competing ligand and curve fit using a non-linear regression algorithm with PRISM software.

Another data set addresses T2, GR (Mus musculus, UniProt P06537).
T2 construct: from tissue; host or cells: tissues of C57BL6/J mice (intact or adrenalectomized), in vivo
T2 sequence (P06537 1-792): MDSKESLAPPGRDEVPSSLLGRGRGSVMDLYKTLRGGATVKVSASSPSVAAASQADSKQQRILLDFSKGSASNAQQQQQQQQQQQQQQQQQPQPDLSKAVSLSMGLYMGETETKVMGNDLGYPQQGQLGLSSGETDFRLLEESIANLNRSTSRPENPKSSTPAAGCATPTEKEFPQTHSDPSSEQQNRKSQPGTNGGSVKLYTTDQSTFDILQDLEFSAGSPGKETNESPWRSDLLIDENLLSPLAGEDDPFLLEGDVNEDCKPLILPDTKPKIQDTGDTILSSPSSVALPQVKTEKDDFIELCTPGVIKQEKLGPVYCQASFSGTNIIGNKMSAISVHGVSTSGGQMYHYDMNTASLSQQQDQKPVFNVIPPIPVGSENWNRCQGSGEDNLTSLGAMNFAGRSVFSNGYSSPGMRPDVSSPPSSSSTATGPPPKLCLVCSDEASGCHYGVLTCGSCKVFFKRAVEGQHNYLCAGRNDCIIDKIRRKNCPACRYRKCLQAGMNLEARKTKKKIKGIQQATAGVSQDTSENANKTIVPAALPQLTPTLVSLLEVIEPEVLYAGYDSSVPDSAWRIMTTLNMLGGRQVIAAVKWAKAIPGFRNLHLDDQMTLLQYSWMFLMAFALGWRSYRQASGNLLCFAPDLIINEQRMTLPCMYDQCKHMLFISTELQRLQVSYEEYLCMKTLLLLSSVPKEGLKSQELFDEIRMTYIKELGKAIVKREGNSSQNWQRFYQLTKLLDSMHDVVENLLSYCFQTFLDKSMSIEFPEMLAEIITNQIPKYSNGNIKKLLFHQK
In words: [18F]-YJH08 biodistribution, dexamethasone treatment study. Format: in vivo. The note with it: 20 min after injection. On the procedure:
All animal experiments were conducted under the approval from Institutional Animal Care and Use Committee (IACUC) at UCSF. Male nu nu or C57BL6/J mice (4-6 weeks) purchased from Charles River. All the mice were well-housed in the USCF with free access to food and water. […] The mice were treated once daily for three days. At day 3, the mice received the radiotracer after the final gavage. Adrenalectomized mice were purchased from Charles River, and provided drinking water supplemented with NaCl (aq) per instructions.
For a broader survey of radiotracer biodistribution post mortem, mice were euthanized after radiotracer injection with CO2(g) asphyxiation and dissected at dedicated time points post injection. The blood and tissues were removed, washed, dried and weighed. The activity of each tissue was measured with a gamma counter. All data was decay corrected. PRISM software was used to express a percentage (% ID/g) of the injected dose per gram of tissue. […] The data are represented as mean standard deviation of the % ID/g. […]
The data are presented as a mean±standard deviation of the % ID/g. […] The P value indicates the result of an unpaired, two-tailed Student's t test.

The mark [1] stands for this setting: mice given dexamethasone 100 mg/kg oral gavage once daily for three days.
Where [2] appears, read: mice given vehicle by oral gavage once daily for three days.

Structures are written as SMILES.

What is called Kd is the free concentration of one partner at which half of the binding sites on the other are occupied at equilibrium, for simple one-to-one binding. Turning to `COc1cccc2c1-c1ccc3c(c1C(Cc1ccc(F)cc1)O2)C(C)=CC(C)(C)N3` (racemic) [YJH08, 5-(4-fluorobenzyl)-10-methoxy-2,2,4-trimethyl-2,5-dihydro-1H-chromeno[3,4-f]quinoline], at ER, the Kd is 19 µM.

As for `COc1cccc2c1-c1ccc3c(c1C(Cc1ccc([18F])cc1)O2)C(C)=CC(C)(C)N3` (racemic) [[18F]-YJH08, [^18F]-5-(4-fluorobenzyl)-10-methoxy-2,2,4-trimethyl-2,5-dihydro-1H-chromeno[3,4-f]quinoline], on GR (setting [1]), the “radiotracer uptake, Adrenal Gland” value is recorded as 10.40 ± 0.7 % ID/g; the “radiotracer uptake, Blood” value is listed as 2.95 ± 0.2 % ID/g; the “radiotracer uptake, Bone” value is reported as 1.25 ± 0.2 % ID/g; the “radiotracer uptake, Brain” value worked out at 1.31 ± 0.07 % ID/g. At GR (setting [1]), the “radiotracer uptake, Heart” value worked out at 7.57 ± 0.9 % ID/g; the “radiotracer uptake, Kidney” value was determined as 3.75 ± 0.5 % ID/g; the “radiotracer uptake, Large intestine” value was determined as 1.77 ± 0.5 % ID/g; the “radiotracer uptake, Liver” value was found to be 11.43 ± 2.1 % ID/g. Further, on GR (setting [1]), the “radiotracer uptake, Lung” value worked out at 3.92 ± 0.3 % ID/g; the “radiotracer uptake, Muscle” value is given as 1.71 ± 0.1 % ID/g; the “radiotracer uptake, Pancreas” value is given as 3.33 ± 0.1 % ID/g; the “radiotracer uptake, Small intestine” value was determined as 34.43 ± 7.2 % ID/g. Moreover, on GR (setting [1]), the “radiotracer uptake, Spleen” value is 4.23 ± 0.3 % ID/g; the “radiotracer uptake, Stomach” value came out at 0.48 ± 0.4 % ID/g; the “radiotracer uptake, Supraspinal BAT” value came to 4.69 ± 0.7 % ID/g. Further, at GR (setting [2]), the “radiotracer uptake, Adrenal Gland” value worked out at 17.29 ± 6.7 % ID/g; the “radiotracer uptake, Blood” value was determined as 3.98 ± 0.08 % ID/g; the “radiotracer uptake, Bone” value is 2.17 ± 0.2 % ID/g; the “radiotracer uptake, Brain” value is on record as 2.05 ± 0.03 % ID/g. Besides, on GR (setting [2]), the “radiotracer uptake, Heart” value worked out at 10.66 ± 0.4 % ID/g; the “radiotracer uptake, Kidney” value was 8.49 ± 1.3 % ID/g; the “radiotracer uptake, Large intestine” value was 1.57 ± 0.4 % ID/g; the “radiotracer uptake, Liver” value is recorded as 18.46 ± 2.9 % ID/g. Moreover, at GR (setting [2]), the “radiotracer uptake, Lung” value amounted to 6.26 ± 0.4 % ID/g; the “radiotracer uptake, Muscle” value was 2.46 ± 0.2 % ID/g; the “radiotracer uptake, Pancreas” value is reported as 6.22 ± 1.6 % ID/g; the “radiotracer uptake, Small intestine” value came out at 19.12 ± 5.7 % ID/g. Also, at GR (setting [2]), the “radiotracer uptake, Spleen” value was 3.79 ± 0.4 % ID/g; the “radiotracer uptake, Stomach” value came out at 1.74 ± 0.8 % ID/g; the “radiotracer uptake, Supraspinal BAT” value was 10.52 ± 2.9 % ID/g.
